{"source": "paper PMC5951580", "about": "“The effect of acylation with fatty acids and other modifications on HLA class II:peptide binding and T cell stimulation for three model peptides” (PLoS ONE, 2018)", "key": {"HLA-DR alleles": {"system": "HLA-DR alleles", "set-up": "species or system human", "conditions": "15 HLA-DR alleles analyzed, IC50 of 1000 nM as binding threshold"}, "HLA-DQA1*01:02/B1*06:02": {"target": "HLA-DQA1*01:02/B1*06:02 (Homo sapiens, UniProt P01909+P01920, A157G/A45G/C70R/E118A/E183D/E77G/F83G/G63E/H151Q/H199R/H252R/H253Q/I129T/I235V/I88M/INS77G/K197Q/L117V/L119F/L178F/L71W/L74F/L85Q/L91A/L98M/N214S/P87R/Q116E/Q76K/R102G/R240Q/R75S/R78G/S102Y/S185I/S41F/S97I/T121G/T122I/T172A/T86R/V229M/V68A/V73E/Y34C/Y41F/Y58L)", "sequence (P01920 33-261 with the stated changes limits assumed, other chains not shown)": "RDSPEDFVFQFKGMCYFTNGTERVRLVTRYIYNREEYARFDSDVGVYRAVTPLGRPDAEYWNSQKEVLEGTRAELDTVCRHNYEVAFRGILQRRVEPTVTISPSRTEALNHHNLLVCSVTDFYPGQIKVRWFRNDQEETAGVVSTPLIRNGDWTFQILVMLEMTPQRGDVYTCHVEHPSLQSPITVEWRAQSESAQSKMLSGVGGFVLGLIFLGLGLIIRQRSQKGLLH", "format": "binding", "conditions": "threshold IC50 1000 nM"}, "[1]": {"system": "PBMCs from healthy donors", "experiment": "Two-week re-stimulation T cell assay with IFN-γ, IL-5 and IL-10 fluorospot", "format": "cell-based, human", "conditions": "for Frequency of responding donors (all cytokines) / Frequency of responding donors compared to the non-acylated peptide (in words) / Magnitude of the response (SFC, all cytokines) compared to the non-acylated peptide (in words): peptide 50 μg/ml, IFN-γ/IL-5/IL-10 fluorospot, n = 22; for Frequency of responding donors (all cytokines): 14 days stimulation with IL-2, re-stimulation 20h, one positive hit for one cytokine equals a positive donor; for Frequency of responding donors compared to the non-acylated peptide (in words) / Magnitude of the response (SFC, all cytokines) compared to the non-acylated peptide (in words): re-stimulation"}, "[2]": {"conditions": "cited from earlier work"}, "[3]": {"conditions": "human, in vivo; cited from earlier work"}}, "data": [{"substance": "PKYVKQNTLKLAT [Peptide 1]", "values": [{"measurement": "HLA-DR alleles that bound the peptide with an affinity of 1000 nM or better (number/number analyzed)", "setting": "HLA-DR alleles", "value": "12/15"}, {"measurement": "HLA-DR alleles that bound the peptide with an affinity of 1000 nM or better", "setting": "HLA-DR alleles; radiolabeled peptide competition, two-day incubation, three or more independent experiments", "value": 80, "unit": "%"}, {"measurement": "HLA-DQA1*01:02/B1*06:02 binding capacity (binder / non-binder)", "setting": "HLA-DQA1*01:02/B1*06:02", "value": "non-binder"}, {"measurement": "Cytokine response (IFN-γ, IL-5, IL-10 secreting cells) in words", "setting": "[1]; peptide 5 μg/ml, 14 days stimulation, re-stimulation 20 hours, fluorospot, seven donors", "value": "significant numbers of IFN-γ, IL-5 and IL-10 producing cells"}, {"measurement": "Donors with an immunogenic response", "setting": "[2]", "value": "approximately 30%"}]}, {"substance": "Peptide 7: Exendin-4 (1–39), 39-aa peptide used for the treatment of diabetes mellitus type 2, non-acylated", "values": [{"measurement": "Frequency of responding donors (all cytokines)", "setting": "[1]", "value": 40, "unit": "%"}, {"measurement": "Patients treated with the compound that show an immunogenic response", "setting": "[3]", "value": "40–60%"}]}, {"substance": "Peptide 13: Exendin-4 acylated with 2 x C18 via Oeg-Oeg-LγGlu at 12 (K) + 27 (K)", "values": [{"measurement": "Frequency of responding donors compared to the non-acylated peptide (in words)", "setting": "[1]; 14 days stimulation", "value": "decreased"}, {"measurement": "Magnitude of the response (SFC, all cytokines) compared to the non-acylated peptide (in words)", "setting": "[1]; 14 days stimulation", "value": "decreased"}]}, {"substance": "QLLDRGATALVLQVLNVPRLMTQD [Peptide 14, Vatreptacog alfa (285–309) peptide fragment, 25-aa, non-acylated]", "values": [{"measurement": "Frequency of responding donors (all cytokines)", "setting": "[1]", "value": 45, "unit": "%"}]}, {"substance": "Peptide 11: Exendin-4 acylated with C18 via Oeg-Oeg-LγGlu at 27 (K)", "values": [{"measurement": "Frequency of responding donors (all cytokines)", "setting": "[1]", "value": "None"}]}, {"substance": "Peptide 10: Exendin-4 acylated with C18 via Oeg-Oeg-LγGlu at 20 (WT R to K)", "values": [{"measurement": "Frequency of responding donors compared to the non-acylated peptide (in words)", "setting": "[1]; 14 days stimulation", "value": "further decreases"}, {"measurement": "Magnitude of the response (SFC, all cytokines) compared to the non-acylated peptide (in words)", "setting": "[1]; 14 days stimulation", "value": "decreased magnitudes"}]}, {"substance": "Peptide 12: Exendin-4 acylated with C18 via Oeg-Oeg-LγGlu at C-terminus", "values": [{"measurement": "Frequency of responding donors (all cytokines)", "setting": "[1]", "value": 10, "unit": "%"}]}]}
